Assay type in all cases: functional
Common to all, as to conditions: read-out: ED50 (the source's name)

One assay relates to P388. In words: Cytotoxicity against mouse P388 cells.
A further assay deals with HT-29. In words: Cytotoxicity against human HT-29 cells.
For another assay, the system named is A549. In words: Cytotoxicity against human A549 cells.
The next assay deals with SK-MEL-28. In words: Cytotoxicity against human SK-MEL-28 cells.

Data on 3 molecules can be found in ChEMBL document CHEMBL1146413, “New polyhalogenated monoterpenes from the sea hare Aplysia punctata” (1997).

Values after ≈ are worked out from the molar mass of the structure shown.

Turning to `CC(=O)OCCC(C)C(=O)CC/C(=C/Cl)C(Cl)Cl` (configuration not stated), the EC50 in the assay with P388 turned out to be 2.5 µg/mL (≈ 7.92 µM); with HT-29, 2.5 µg/mL (≈ 7.92 µM); in the assay with A549, 1.5 µg/mL (≈ 4.75 µM); in the assay on SK-MEL-28, 1.5 µg/mL (≈ 4.75 µM).

As to `CC(=O)OCC/C(C)=C(Cl)/C=C/C(C)(Cl)CBr` (configuration not stated), the EC50 in the assay on P388 was 2.5 µg/mL (≈ 7.27 µM); in the assay on HT-29 it was 2.5 µg/mL (≈ 7.27 µM); in the assay with A549 it was 1.5 µg/mL (≈ 4.36 µM); with SK-MEL-28, 1.5 µg/mL (≈ 4.36 µM).

In the case of `CC(=O)OCCC(C)C(=O)CC/C(=C\Cl)C(Cl)Cl` (configuration not stated), the EC50 in the assay with P388 is 2.5 µg/mL (≈ 7.92 µM); in the assay on HT-29, 2.5 µg/mL (≈ 7.92 µM); in the assay with A549 it was 1.5 µg/mL (≈ 4.75 µM); in the assay on SK-MEL-28, 1.5 µg/mL (≈ 4.75 µM).
